{"source": "patent US20060003027A1", "about": "“Composition and method for reducing side effects of indole-3-carbinol and derivatives” (priority 2004, published 2006)", "key": {"mammary carcinogenesis": {"test_system": "mammary carcinogenesis", "conditions": "rat model; cited from earlier work"}, "[1]": {"assay": "Side effects observed in treated patients (case reports)", "assay_type": "in vivo, human", "procedure": "(§1) This patient was administered a high dosage of I3C, specifically 110 mg/per dose, twice daily. […] A composition (composition 1) in accordance with the present invention was then given to this patient. Composition 1 is as set forth below:\n(§2) Composition 3 was then administered to this patient for a period of eight weeks."}, "[2]": {"test_system": "HPV-induced benign tumors of laryngeal tissue", "conditions": "mouse model; cited from earlier work"}, "[3]": {"test_system": "cervical or vaginal neoplasia", "assay": "Treatment of female patients with coccygeal-area pain and abnormal pap smear (pain, pap smear, biopsy)", "assay_type": "in vivo, human", "conditions": "I3C alone, 110 mg per dose twice daily; Example 1 patient", "procedure": "A patient, and 110 lbs. in weight, has complained of pain in the area of the coccygeal vertebra, which may reflect cervical inflammation, and/or cervical or vaginal neoplasia.\nas §1\nComposition 2 in accordance with the present invention was administered to the patient. Composition 2 is as set forth below:\nas §2"}}}
{"smiles": "OCc1c[nH]c2ccccc12", "note": "[Composition I3C, Indole-3-carbinol]", "values": [{"measurement": "inhibition of mammary carcinogenesis", "setting": "mammary carcinogenesis", "value": "effective in inhibiting mammary carcinogenesis"}, {"measurement": "side effects experienced", "setting": "[1]; I3C alone, 110 mg per dose twice daily, about a week, patient, 110 lbs", "value": "headache, dizziness and fatigue"}, {"measurement": "undesirable side effects", "setting": "[1]; I3C at 200 mg/day and above 200 mg/day, some people of regular body weight", "value": "headache, dizziness, stomach disturbance, convulsion, vomiting, and fatigue"}, {"measurement": "growth of HPV-induced benign tumors of laryngeal tissue", "setting": "[2]", "value": "inhibits growth"}, {"measurement": "pain in the area of the coccygeal vertebra", "setting": "[3]", "value": "relief from the pain"}]}
